In experiment [1] the test system is THP-1 cells. The experiment can be described thus: Chase assay of Aβ catabolism, Simoa immunoassays of intracellular Aβ fragments (Example 1). The following applies: TPA-differentiated THP-1; 100 ng/ml Abeta40 2 h, 4 hours chase; 100 nM Bafilomycin, 100 nM Rapamycin, 100 μM Neprilysin inhibitor, 200 nM BACE inhibitor, 1 μM IDE inhibitor; vs 4 hour chase. Type of experiment: cell-based. The procedure:
To adjust for inter-day variations in measurements for the different experiments, values were normalized using the baseline condition as the reference for each day of experiments using the following formula: [(biomarker value/mean biomarker value)[…])].
Statistical analyses were carried out with one-way ANOVA models. If a significant (p<0.05) omnibus (F-test) ANOVA was shown, planned comparisons according to our hypotheses were carried out. This included a main comparison between the reference condition and experimental conditions (endolysosomal inhibitors and autophagosome activators). The Figures thus indicate within each bar the percentage change, and associated statistical significance (p-value) or lack thereof (n.s.), as compared to the reference condition (100%) (i.e. the main comparison). For some experiments (FIGS. 4, 5 and 7), additional comparisons between experimental conditions were conducted in accordance with hypotheses. Significant between-group differences for these comparisons are shown with horizontal bars with the associated statistical significance (p-value), or lack thereof (n.s.).
Aβ catabolism and detoxification, and the effect of example inhibitors and activators thereon, was measured using antibodies specific for intracellular Aβ mid-domain peptides, i.e. catabolism products. In particular, inhibition of endolysosomal activity is expected to reduce degradation and increase concentrations of species, here studied with Bafilomycin, which blocks V-ATPase and inhibits acidification of endolysosomes, thereby inhibiting endolysosomal enzyme activities. Addition of inhibitors of endolysosomal enzymes Neprilysin (Saido 2013) and Insulin Degradation Enzymes are expected to have similar effects (Jha, Jha et al. 2015, Sikanyika, Parkington et al. 2019), whereas BACE1 is involved both in Aβ generation and […] (Vassar, Kovacs et al. 2009, Liebsch, Kulic et al. 2019). Enhancing macroautophagy using Rapamycin is also expected to increase Aβ catabolism (FIG. 3; Spilman, Podlutskaya et al. 2010, Malik, Maddison et al. 2019)
Immunoassays were developed on the single molecule array (Simoa) platform (Quanterix, US) using proprietary antibodies directed against different epitopes of the amyloid β protein (Shown in FIG. 1; SEQ ID NOs: 3-5). The Aβx-40/42 assay used a 40-42 end-specific sheep monoclonal AB.4D7 (Bioventix plc, UK) as the capture antibody, and a sheep monoclonal AB.2A9 (Bioventix plc, UK) with a mid-domain epitope (SEQ ID NO: 7) as the detection antibody. The 40-42 end-specific antibody was raised against the epitope shown in SEQ ID NO: 5, and binds the C-terminal of both Aβ1-42 (SEQ ID NO: 1) and Aβ1-40 (SEQ ID NO: 2). The Aβ20-x assay used the same AB.4D7 antibody as the capture antibody, and the highly specific 20-cut point sheep monoclonal antibody, ABNT.2B8 (Bioventix plc, UK) as the detection antibody. For the Aβx-34 assay, AB.2A9 was used as the capture antibody and an anti-complex antibody, BVX.33420/H3 (Bioventix plc, UK), which preferentially binds a fragment having the C-terminal of SEQ ID NO: 6, was used as the detection antibody, ensuring mid-domain x-34 specificity.
Chase Assays THP-1 cells were differentiated toward macrophages by a 48 hour treatment with 100 nM TPA (12-O-tetradecanoylphorbol-13-acetate). Media was replaced with fresh medium with or without modulators of the autophagic/endolysosomal system: 100 nM Bafilomycin, 100 nM Rapamycin, 100 μM Neprilysin inhibitor, 200 nM BACE inhibitor, or 1 μM IDE inhibitor, or a triple combination of the enzyme inhibitors Neprilysin inhibitor, BACE inhibitor and IDE inhibitor. The cells were incubated for 1 hour before adding 100 ng/ml Abeta40 to the cells. Cells were further incubated for 2 hours before removing Abeta40 and a continued 4 hours chase with or without the respective modulators. Cells were washed before adding lysis buffer. Lysates were kept at −80° C. until analysis.

Experiment [2] relates to THP-1 cells. The experiment is described as follows: Clearance assay on a background of LPS inflammatory activation, Mesoscale immunoassay (Example 4). Type of experiment: cell-based. The following applies: with LPS, 16 h; Aβ1-40 2 h; 4 h chase; reference LPS+Aβ40 4 hour chase. How it is done: The immunoassay was set up on a Mesoscale platform. THP-1 cells were differentiated towards phagocytic monocytes/macrophages during a 48 h incubation with 12-O-tetra-decanoylphorbol-13-acetate (TPA). Media were replaced with fresh medium containing LPS alone or LPS together with DHA or NS1738 or combination of DHA and NS1738, for an overnight incubation (16 h). The marker protein (Aβ1-40) was added to the cells for an additional 2 h incubation. Media were replaced with fresh medium without any additives and the cells were further incubated for a 4 h chase period. The cells were kept cold, media removed, and the cells washed with cold PBS. Lysis buffer containing protease inhibitors and sodium dodecyl sulfate (SDS) was added to the cells. After lysis, the cells were scraped and transferred to tubes and kept in a −80° C. freezer. Lysates were sonicated and treated with DNase before analysis on the degradation assays.

Experiment [3] has as its system cells in an innate immune model system. The following applies: DHA treatment of cells in an innate immune model system; cited from earlier work.
The test system of experiment [4] is THP-1 cells. The experiment is described as follows: Chase assay with proposed AD interventions, Mesoscale immunoassay (Example 2). It counts as cell-based. The following applies: 16 hours DHA (100 μM) and/or NS1738 (10 μM); Aβ1-40 500 ng/ml; reference Aβ40 4 hour chase. How it is done:
An immunoassay was set up on a Mesoscale platform using the same antibodies as, and a similar method to, Example 1. Cells were incubated overnight (16 hours) with DHA (100 μM) and/or NS1738 (10 μM). Aβ1-40 was added at a concentration of 500 ng/ml, and removed from the media before the 4 hour chase. DHA and NS1738 were removed from the media during the 4 hour chase.

Experiment [5] addresses Aβ20-34, mid-domain fragment of Aβ1-42 and Aβ1-40. The experiment is described as follows: monocyte lysate pool + 12 pg/ml Aβ20-34 pre-incubated with the antibody, then Simoa Aβx-34 immunoassay (untreated 13.8 pg/ml).
Experiment [6] has the same target. The experiment is described as follows: monocyte lysate pool + 12 pg/ml Aβ20-34 pre-incubated with the antibody, then Simoa Aβx-34 immunoassay.

“Also recorded” adds a separate entry of the source. Structures can show the parent of a compound that is named as a salt.

With `NC1=N[C@@]2(c3cc(NC(=O)c4ccc(F)cn4)ccc3F)COC[C@H]2CS1` [BACE inhibitor, LY2886721], in the experiment on THP-1 cells [1], the “intracellular Aβ20-x level” value is “increases”, the “intracellular Aβx-34 level” value is recorded as “no effect” and the “intracellular Aβx-40/42 level” value is “no effect”.

As to `CO/C1=C\C(C)=C\[C@@H](C)[C@@H](O)[C@@H](C)C/C(C)=C/C=C/[C@H](OC)[C@@H]([C@@H](C)[C@@H](O)[C@H](C)[C@@]2(O)C[C@@H](O)[C@H](C)[C@@H](C(C)C)O2)OC1=O` [Bafilomycin, Bafilomycin A1], in the experiment with THP-1 cells [1], the “intracellular Aβ20-x level” value is given as “significantly increases”, the “intracellular Aβx-34 level” value is “non-significantly increases” and the “intracellular Aβx-40/42 level” value is listed as “significantly increases”.

As for `CC/C=C\C/C=C\C/C=C\C/C=C\C/C=C\C/C=C\CCC(=O)O` [DHA, (4Z, 7Z, 10Z, 13Z, 16Z, 19Z)-4,7, 10, 13, 16, 19-docosahexaenoic acid], in the experiment with THP-1 cells [2], the “intracellular Aβ20-x level” value is on record as “continue to have an effect”, the “intracellular Aβx-34 level” value was “continue to have an effect” and the “intracellular Aβx-40 level” value is “continue to have an effect”. Moreover, the “Aβ1-42 phagocytosis and degradation” value in experiment [3] is on record as “increase”. Also, in the experiment with THP-1 cells [4], the “intracellular Aβx-34 level” value was “reduces the amount; also recorded: decreased”.

Consider `NCCCC[C@@H]1NC(=O)/C=C/C(=O)N[C@H](C(N)=O)CCCCNC(=O)[C@@H](Cc2ccc(C(=O)c3ccccc3)cc2)NC(=O)[C@H](CC2CCCCC2)NC1=O` [IDE inhibitor, 6bK], for which, in the experiment on THP-1 cells [1], the “intracellular Aβ20-x level” value is recorded as “increases”, the “intracellular Aβx-34 level” value is given as “no effect” and the “intracellular Aβx-40/42 level” value is “no effect”.

For `O=C(Nc1cc(Cl)ccc1O)Nc1cc(C(F)(F)F)ccc1Cl` [NS1738], in the experiment on THP-1 cells [2], the “intracellular Aβ20-x level” value is “continue to have an effect”, the “intracellular Aβx-34 level” value is reported as “continue to have an effect” and the “intracellular Aβx-40 level” value is reported as “continue to have an effect”. In addition, in the experiment with THP-1 cells [4], the “intracellular Aβx-34 level” value is recorded as “reduces the amount; also recorded: decreased”.

On to `CC(C)C[C@H](NP(=O)(O)O[C@@H]1O[C@@H](C)[C@H](O)[C@@H](O)[C@H]1O)C(=O)N[C@@H](Cc1c[nH]c2ccccc12)C(=O)O` [Neprilysin inhibitor, Phosphoramidon disodium salt], for which, in the experiment with THP-1 cells [1], the “intracellular Aβ20-x level” value is reported as “increases”, the “intracellular Aβx-34 level” value is given as “unchanged” and the “intracellular Aβx-40/42 level” value was “increases”.

For the compound unspecific antibody LB509, in experiment [5], the concentration left after depletion stood at 11.1 pg/mL. Moreover, in experiment [6], the Percent of untreated came out at 80%.

(Values after patent US20240168011A1, “CLEARANCE ASSAY” (Akershus Universitetssykehus HF, priority 2021, published 2024).)
